Source: patent US20230027985A1, “SUBSTITUTED HYDANTOINAMIDES AS ADAMTS7 ANTAGONISTS” (Bayer Aktiengesellschaft, priority 2019, published 2023)

What was measured:
[1] = target: T1, Purified recombinant ADAMTS-7 (rat prodomain/human catalytic domain, SEQ ID No. 01 or 02) (Homo sapiens, UniProt Q9UKP4); assay: Assay for ADAMTS-7 enzymatic activity (FRET substrate cleavage); type: biochemical; conditions: FRET substrate SEQ ID No. 11, 120 min at 32° C.; read-out: ADAMTS7-IC50
T1 construct: rat ADAMTS-7 signal peptide + prodomain (rat 1-217, Q1EHB3) (N); 2xStrep tag (C); 6xHis tag (C); made in house; host or cells: Expi293 cells
T1 sequence (Q9UKP4 237-537): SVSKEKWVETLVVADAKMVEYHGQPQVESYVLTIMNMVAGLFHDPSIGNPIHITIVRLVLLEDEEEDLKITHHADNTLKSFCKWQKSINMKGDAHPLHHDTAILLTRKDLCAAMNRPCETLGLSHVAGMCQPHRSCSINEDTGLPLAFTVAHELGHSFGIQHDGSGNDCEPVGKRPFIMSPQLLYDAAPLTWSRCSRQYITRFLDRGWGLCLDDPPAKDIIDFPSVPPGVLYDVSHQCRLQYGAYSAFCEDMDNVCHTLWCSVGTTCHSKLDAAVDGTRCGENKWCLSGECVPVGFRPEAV
Summary of the method: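 IC50 values were fitted from percent inhibition across test-compound concentrations. Fluorescence gain (ex 485, em 520 nm) reports cleavage of a thrombospondin-1 (275-289) FRET peptide with QXL520 quencher, after 120 min at 32 °C. The enzyme, about 20 nM, was in HEPES pH 8.0 buffer with NaCl, CaCl2, ZnCl2 and Brij.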

ADAMTS4 = target: T2, ADAMTS4 (Homo sapiens, UniProt O75173); assay: Selectivity assay for ADAMTS-7 modulators (FRET), ADAMTS4; type: biochemical; conditions: 50 nM enzyme (R&D 4307-AD), 1 μM Dabcyl/Edans FRET substrate, 120 min at 32° C.
T2 construct: purchased R&D 4307-AD
T2 sequence (O75173 213-685 limits assumed): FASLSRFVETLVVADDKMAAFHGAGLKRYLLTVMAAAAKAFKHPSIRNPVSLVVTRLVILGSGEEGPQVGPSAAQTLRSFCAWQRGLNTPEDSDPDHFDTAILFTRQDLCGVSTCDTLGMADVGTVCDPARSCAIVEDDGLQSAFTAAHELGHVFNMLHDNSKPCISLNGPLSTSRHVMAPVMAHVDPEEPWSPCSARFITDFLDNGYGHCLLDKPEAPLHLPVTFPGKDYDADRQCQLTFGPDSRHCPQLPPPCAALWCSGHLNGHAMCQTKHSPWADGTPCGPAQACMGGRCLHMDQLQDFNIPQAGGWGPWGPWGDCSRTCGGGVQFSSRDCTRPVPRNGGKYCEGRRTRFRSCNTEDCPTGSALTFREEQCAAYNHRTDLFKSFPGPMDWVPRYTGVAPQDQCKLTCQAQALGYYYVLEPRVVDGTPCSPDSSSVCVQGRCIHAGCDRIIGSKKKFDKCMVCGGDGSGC
Summary of the method: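 Enzyme in 50 mM Tris pH 7.5, 150 mM NaCl, 10 mM CaCl2, 0.05% Brij, preincubated with compound in DMSO; reaction started with FRET substrate. Fluorescence increase read after 120 min at 32° C; IC50 from percent inhibition versus compound concentration.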

SMILES	IC50 [1] [nM]	IC50 (ADAMTS4) [nM]
C[C@H](NC(=O)c1cnn(-c2ccccc2)n1)C1(C2CC2)NC(=O)NC1=O (stereo partly drawn) [Example 40, ent-N-((1S)-1-(4-Cyclopropyl-2,5-dioxoimidazolidin-4-yl)ethyl)-2-phenyl-2H-1,2,3-triazole-4-carboxamide]	980	25000
O=C1NC(=O)[C@](CNC(=O)c2coc(-c3ccc(F)cc3)n2)(C2CC2)N1 [Example 41, N-{[(4R)-4-cyclopropyl-2,5-dioxoimidazolidin-4-yl]methyl}-2-(4-fluorophenyl)-1,3-oxazole-4-carboxamide]	55	1700
O=C1NC(=O)[C@](CNC(=O)c2nnc(-c3ccc(F)cc3)o2)(C2CC2)N1 [Example 42, N-{[(4R)-4-cyclopropyl-2,5-dioxoimidazolidin-4-yl]methyl}-5-(4-fluorophenyl)-1,3,4-oxadiazole-2-carboxamide]	350	12000
CC1(C)CC1C1(CNC(=O)c2cnn(-c3ccccc3)n2)NC(=O)NC1=O (stereo not drawn) [Example 43, ent-N-{[4-(2,2-dimethylcyclopropyl)-2,5-dioxoimidazolidin-4-yl]methyl}-2-phenyl-2H-1,2,3-triazole-4-carboxamide]	320	13000
CC(C)(C)CC1(CNC(=O)c2cnn(-c3ccccc3)n2)NC(=O)NC1=O (stereo not drawn) [Example 44, ent-N-{[4-(2,2-dimethylpropyl)-2,5-dioxoimidazolidin-4-yl]methyl}-2-phenyl-2H-1,2,3-triazole-4-carboxamide]	250	5000
O=C1NC(=O)[C@](CNC(=O)c2cnn(-c3ccccc3)n2)(C2CC2)N1 [Example 45, N-{[(4R)-4-cyclopropyl-2,5-dioxoimidazolidin-4-yl]methyl}-2-phenyl-2H-1,2,3-triazole-4-carboxamide]	69	1450
O=C1NC(=O)[C@](CNC(=O)c2cnn(-c3ccccn3)n2)(C2CC2)N1 [Example 47, N-{[(4R)-4-cyclopropyl-2,5-dioxoimidazolidin-4-yl]methyl}-2-(pyridin-2-yl)-2H-1,2,3-triazole-4-carboxamide]	98	7650
O=C1NC(=O)[C@](CNC(=O)c2cnn(-c3ccccc3)c2)(C2CC2)N1 [Example 56, N-{[(4R)-4-cyclopropyl-2,5-dioxoimidazolidin-4-yl]methyl}-1-phenyl-1H-pyrazole-4-carboxamide]	129	1800
CC(CO)C1(CNC(=O)c2cnn(-c3ccccc3)n2)NC(=O)NC1=O (stereo not shown) [Example 57]	190	17000
O=C1NC(=O)[C@](CNC(=O)c2cnc(-c3ccccc3)o2)(C2CC2)N1 [Example 59, N-{[(4R)-4-cyclopropyl-2,5-dioxoimidazolidin-4-yl]methyl}-2-phenyl-1,3-oxazole-5-carboxamide]	550	11300
O=C1NC(=O)[C@](CNC(=O)c2cnn(-c3ccccn3)n2)(C2CC2)N1 [Example 60, N-{[(4R)-4-cyclopropyl-2,5-dioxoimidazolidin-4-yl]methyl}-2-(pyridin-2-yl)-2H-1,2,3-triazole-4-carboxamide]	259	8400
CC(C)C1(CNC(=O)c2cnn(-c3ccccc3)n2)NC(=O)NC1=O (stereo not drawn) [Example 70, ent-N-[(2,5-dioxo-4-(propan-2-yl)imidazolidin-4-yl)methyl]-2-phenyl-2H-1,2,3-triazole-4-carboxamide]	76	10000
CC(C)(C)C1(CNC(=O)c2cnn(-c3ccccc3)n2)NC(=O)NC1=O (stereo not drawn) [Example 71, ent-N-[(4-tert-butyl-2,5-dioxoimidazolidin-4-yl)methyl]-2-phenyl-2H-1,2,3-triazole-4-carboxamide]	47	13100
O=C1NC(=O)C(CNC(=O)c2cnn(-c3ccc(F)cc3)n2)(CC2CC2)N1 (stereo not drawn) [Example 72, ent-N-[(4-(cyclopropylmethyl)-2,5-dioxoimidazolidin-4-yl]methyl]-2-(4-fluorophenyl)-2H-1,2,3-triazole-4-carboxamide]	130	6200
